The text below walks through data of patent US20070031328A1, “Radiolabeled-pegylation of ligands for use as imaging agents” (priority 2005, published 2007).

Structures are written as SMILES. Read-outs that look alike come from different tables or passages of the source.

For data set [1], the target named is T1, Ab aggregates of AD brain homogenates (Homo sapiens, UniProt P05067).
T1 construct: to Ab aggregates of AD brain homogenates; from tissue; host or cells: post-mortem grey matter of AD patients, homogenised in PBS
T1 sequence (P05067 672-713 limits assumed): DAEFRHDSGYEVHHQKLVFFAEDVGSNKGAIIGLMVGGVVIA
Briefly: Inhibition of [125I]IMPY binding to Aβ aggregates of AD brain homogenates. Also on record: species or system human (AD patients). The protocol: Postmortem brain tissues were obtained from AD patients at autopsy, and neuropathological diagnosis was confirmed by current criteria (NIA-Reagan Institute Consensus Group, 1997). Homogenates were then prepared from dissected gray matters from AD patients in phosphate buffered saline (PBS, pH 7.4) at the concentration of approximately 100 mg wet tissue/ml (motor-driven glass homogenizer with setting of 6 for 30 sec).
Binding assays were carried out in 12×75 mm borosilicate glass tubes. […] The mixture was incubated at 37° C. for 2 hr and the bound and the free radioactivity were separated by vacuum filtration through Whatman GF/B filters using a Brandel M-24R cell harvester followed by 2×3 ml washes of PBS at room temperature. Filters containing the bound ^125I ligand were assayed for radioactivity content in a gamma counter (Packard 5000) with 70% counting efficiency.
Binding assays were carried out in 12×75 mm borosilicate glass tubes. […] The mixture was incubated at 37° C. for 2 hr and the bound and the free radioactivity were separated by vacuum filtration through Whatman GF/B filters using a Brandel M-24R cell harvester followed by 2×3 ml washes of PBS at room temperature. Filters containing the bound ^125I ligand were assayed for radioactivity content in a gamma counter (Packard 5000) with 70% counting efficiency. […] The results of inhibition experiments were subjected to nonlinear regression analysis using EBDA by which Ki values were calculated.

The nature of data set [2]: Partition coefficients, 1-octanol/buffer. The class given is physicochemical. As to conditions: log of partition coefficient between 1-Octanol and buffer (0.1 M phosphate, pH 7.4). The protocol: Partition coefficients were measured by mixing the [^18F]tracer with 3 g each of 1-octanol and buffer (0.1 M phosphate, pH 7.4) in a test tube. The test tube was vortexed for 3 min at room temperature, followed by centrifugation for 5 min. Two weighed samples (0.5 g each) from the 1-octanol and buffer layers were counted in a well counter. The partition coefficient was determined by calculating the ratio of cpm/g of 1-octanol to that of buffer. Samples from the 1-octanol layer were re-partitioned until consistent partitions of coefficient values were obtained (usually the 3rd or 4th partition). The measurement was done in triplicate and repeated three times.

The conditions of data set [3]: log of partition coefficient between 1-Octanol and buffer; compounds marked as from ref (20); cited from earlier work.
Data set [4] deals with T1, Ab aggregates of AD brain homogenates. The note with it: [125I]IMPY, values marked as from refs (20), (6), (15); cited from earlier work.
Data set [5] in a line: Periodic HPLC injection of purified [18F]8b (second peak formation). In kind it is physicochemical. As to conditions: purified tracer injected periodically on HPLC after purification; attributed to E and Z isomers. As for the experimental part:
Radiolabeled [^18F]8b was prepared from the mesylate precursor in moderate radiochemical yield (23%) but unfortunately could not be prepared in good radiochemical purity. The formation of a second peak was evident within minutes of labeling. […] They attribute the formation of a second peak to the facile formation of E and Z isomers (30).
[^18F]8b from precursor 11: (HPLC conditions: Phenomenex Gemini C18 semi-prep column [(5.0×250 mm, 5 μm); Acetonitrile/water 60/40; flow rate 3 mL/min)
Retention time of ^18F-labeled product was 28.0 min., well separated from the major hydrolysis by-product (Rt=11.8 min.). The product was isolated in 23% radiochemical yield (decay corrected) and greater than 98% radiochemical purity. Purified [^18F]8b was injected periodically after purification. Formation of a second peak increased to 50% of the parent compound.

[6] abbreviates: 1-octanol/buffer, read-out: logP.

In general, Ki refers to the dissociation constant of the complex between target and ligand, obtained from inhibition or displacement. The term logP denotes the decadic logarithm of the partition coefficient of the neutral form, usually between octanol and water. Take `CN(C)c1ccc(C=Cc2nc3ccc(OCCOCCOCCF)cc3o2)cc1` [Compound 8b, 6-(2-(2-(2-fluoroethoxy)-ethoxy)-ethoxy)-[2-(4-dimethylaminophenyl)-vinyl]-benzooxazol]: in data set [1], the inhibitory constant (Ki) is 14.5 ± 5 nM. Further, in data set [2] (setting [6]), the logP came to 2.93.
As to `CNc1ccc(/C=C/c2ccc(OCCOCCOCCOCCOCCF)cc2)cc1` [Compound 1d], the logP in data set [3] is 2.27. The Ki in data set [4] was 6.8 ± 0.8 nM.
As for `CNc1ccc(/C=C/c2nc3ccc(OCCF)cc3o2)cc1` [BF-168, reference compound], the Ki in data set [4] is 6.4 nM.
In the case of `CNc1ccc(/C=C/c2ccc(O)cc2)cc1` [SB-13, reference compound], the logP in data set [2] is 2.36.
In data set [1], `CN(C)c1ccc(-c2cn3cc(OCCOCCOCCOCCOCCOCCOCCOCCF)ccc3n2)cc1` [Compound 12e, 6-(2-fluoroethoxy-ethoxy-ethoxy-ethoxy-ethoxy-ethoxy-ethoxy-ethoxy)-2-(4-dimethylamino-) phenyl-imidazo[1,2-a]pyridine] registered a Ki of 387 ± 12 nM.
Still for that read-out and setting: with `CN(C)c1ccc(-c2cn3cc(OCCF)ccc3n2)cc1` [Compound 12a, 6-(2-fluoroethoxy)-2-(4-dimethylamino-)phenyl-imidazo [1,2-a]pyridine] the figure was 16 ± 2 nM.
For `CNc1ccc(/C=C/c2ccc(OCCOCCOCCF)cc2)cc1` [Compound 1b], the logP in data set [3] was 2.41. Moreover, the Ki in data set [4] is 6.7 ± 0.3 nM.
For `CNc1ccc(/C=C/c2ccc(OCCOCCF)cc2)cc1` [Compound 1a], in data set [3], the logP is given as 2.53. In data set [4], the inhibition constant Ki was 2.9 ± 0.2 nM.
With `CNc1ccc(/C=C/c2ccc(OCCOCCOCCOCCF)cc2)cc1` [Compound 1c], the logP in data set [3] is 2.05. Besides, the Ki in data set [4] was 4.4 ± 0.8 nM.
On to `CN(C)c1ccc(-c2cn3cc(OCCOCCOCCF)ccc3n2)cc1` [Compound 12c, 6-(2-fluoroethoxy-ethoxy-ethoxy)-2-(4-dimethylamino-)phenyl-imidazo[1,2-a]pyridine], for which affinity in data set [1] was put at a Ki of 30 ± 2.5 nM. In data set [2] (setting [6]), the logP worked out at 2.69.
The like results for `CNc1ccc(-c2nc3ccc(OCCOCCOCCOCCOCCOCCF)cc3s2)cc1` [Compound 5c, 2-[4′-(methylamino)phenyl]-6-{2-[2-(2-{2-[2-(2-fluoroethoxy)-ethoxy]ethoxy}ethoxy)ethoxy]ethoxy}benzothiazole] were, in that order, 4.7 ± 0.9 nM and 2.99.
As for `CN(C)c1ccc(C=Cc2nc3ccc(OCCOCCOCCOCCOCCOCCOCCOCCF)cc3o2)cc1` [Compound 8d, 6-(2-(2-(2-(2-(2-(2-(2-(2-fluoroethoxy)-ethoxy)-ethoxy)-ethoxy)-ethoxy)-ethoxy)-ethoxy)-ethoxy)-[2-(4-dimethylaminophenyl)-vinyl]-benzooxazol], in data set [1], the Ki stood at 6 ± 0.6 nM.
In the case of `CN(C)c1ccc(/C=C/c2nc3ccc(OCCOCCOCC[18F])cc3o2)cc1` [[^18F]8b], in data set [5], the “Formation of a second peak, of the parent compound” value is on record as 50%.
`CNc1ccc(-c2nc3ccc(OCCOCCF)cc3s2)cc1` [Compound 5a, 2-[4′-(methylamino)phenyl]-6-[2-(2-fluoroethoxy)-ethoxy]benzothiazole] displayed a Ki in data set [1] of 2.2 ± 0.5 nM. In addition, in data set [2] (setting [6]), the log partition coefficient (logP) stood at 3.04.
With `CN(C)c1ccc(-c2cn3cc(OCCOCCF)ccc3n2)cc1` [Compound 12b, 6-(2-fluoroethoxy-ethoxy)-2-(4-dimethylamino-)phenyl-imidazo[1,2-a]pyridine], the affinity in data set [1] corresponds to a Ki of 31 ± 9 nM.
Compound `CN(C)c1ccc(C=Cc2nc3ccc(OCCF)cc3o2)cc1` [Compound 8a, 6-(2-fluoroethoxy)-[2-(4-dimethylaminophenyl)-vinyl]-benzooxazol] displayed a Ki in data set [1] of 12 ± 0.5 nM.
Take `CNc1ccc(-c2nc3ccc(OCCOCCOCCF)cc3s2)cc1` [Compound 5b, 2-[4′-(methylamino)phenyl]-6-{2-[2-(2-fluoroethoxy)-ethoxy]ethoxy}benzothiazole]: the affinity in data set [1] corresponds to a Ki of 3.8 ± 0.5 nM. Further, in data set [2] (setting [6]), the logP turned out to be 3.04.
For the compound `CN(C)c1ccc(-c2cn3cc(I)ccc3n2)cc1` [IMPY, 6-iodo-2-(4′-dimethylamino)phenyl-imidazo[1,2-a]pyridine, reference compound], the logP in data set [2] (setting [6]) came to 2.19.
In turn, `CNc1ccc(-c2nc3ccc(OCCOCCOCCOCCOCCOCCOCCOCCF)cc3s2)cc1` [Compound 5d, 2-[4′-(methylamino)phenyl]-6-[2-(2-{2-[2-(2-{2-[2-(2-fluoroethoxy)-ethoxy]ethoxy}ethoxy)ethoxy]ethoxy}ethoxy)ethoxy]benzothiazole] yielded a Ki in data set [1] of 9 ± 1.8 nM.
With `CN(C)c1ccc(-c2cn3cc(OCCOCCOCCOCCOCCOCCF)ccc3n2)cc1` [Compound 12d, 6-(2-fluoroethoxy-ethoxy-ethoxy-ethoxy-ethoxy-ethoxy)-2-(4-dimethylamino-)phenyl-imidazo[1,2-a]pyridine], the Ki in data set [1] is 96 ± 14 nM.
The same measure, in the same setting: for `CN(C)c1ccc(/C=C/c2nc3ccc(OCCOCCOCCOCCOCCOCCF)cc3o2)cc1` [Compound 8c, 6-(2-(2-(2-(2-(2-(2-fluoroethoxy)-ethoxy)-ethoxy)-ethoxy)-ethoxy)-ethoxy)-[2-(4-dimethylaminophenyl)-vinyl]-benzooxazol] the value was 10 ± 0.2 nM.
